Where “and” joins values, the source holds several entries; their conditions need not be identical. Equal entries are not always repeated. Entries after “also recorded” stand apart in the source; their conditions may differ.
Key:
[1] = clinical; conditions: human, in vivo, 10 mg
Procedure: Blood samples were collected at the following time points after dosing to determine the cipargamin plasma concentration: 1, 2, 3, 4, 8, 12, 16, 24, 36, 48, 72, 96, and 120 h. Samples were analyzed by liquid chromatography-tandem mass spectrometry as previously described ([8]). Noncompartmental PK analysis was performed using WinNonlin Pro version 6.4.

[2] = system: Plasmodium falciparum; conditions: cited from earlier work
[3] = Safety assessment (adverse events, clinical laboratory, ECG); type: in vivo, human
Procedure: Safety assessments were performed throughout the study from screening and included adverse event reporting, physical examination, vital signs, clinical laboratory evaluation (hematology, biochemistry, and urinalysis), electrocardiography (ECG), and malaria clinical score recording. The malaria clinical score served as a clinical indication of the severity of the induced malaria infection; 14 signs and symptoms commonly associated with malaria were graded using a 3-point scale (0 = absent, 1 = mild, 2 = moderate, and 3 = severe), and the values were summed in order to generate an overall score (with a maximum possible score of 42). The severity of AEs was graded in accordance with the Common Terminology Criteria for Adverse Events, version 4.03 (https://evs.nci.nih.gov/ftp1/CTCAE/CTCAE_4.03/CTCAE_4.03_2010-06-14_QuickReference_5x7.pdf).

[4] = system: P. falciparum female gametocytes; test: Gametocytemia by pfs25 qRT-PCR; type: in vivo, Plasmodium falciparum
Procedure: A single oral dose of 960 mg piperaquine (PCI Pharma Services, United Kingdom) was administered to subjects in response to parasite regrowth. The purpose of piperaquine treatment was to clear asexual parasites without clearing any gametocytes that may be present. This would allow the gametocytocidal activity of a second dose of cipargamin to be investigated, as well as the transmission of gametocytes to mosquitoes. Gametocytemia was monitored using quantitative reverse transcriptase PCR (qRT-PCR) targeting pfs25 mRNA, a transcript preferentially expressed in mature female gametocytes ([26]). Transcripts per milliliter of blood were converted to female gametocytes per milliliter of blood using a standard curve ([29]). All participants were to receive compulsory rescue treatment with artemether-lumefantrine ([…]; Novartis Pharmaceuticals Pty. Ltd., Macquarie Park, Australia), as well as a single 45-mg dose of primaquine ([…] Group, Sydney, Australia) to clear gametocytes, 21 days after cipargamin dosing or earlier if a second round of parasite regrowth occurred following piperaquine treatment. To monitor total parasitemia, blood samples were collected for 18S rRNA qPCR before inoculation, on day 3, twice daily on days 4 to 6, pretreatment on day 7, and 4, 8, 12, 16, 24, 30, and 36 h posttreatment, twice daily from day 9 to day 11, and every 1 to 3 days until day 35. Blood samples for gametocytemia measurements were collected on day 11, every 1 to 3 days between day 15 and day 29, and on day 35. […] Analyses were performed in R version 3.3.0. The PRR and parasite clearance half-life were estimated using the slope of the optimal fit for the log-linear relationship of the parasitemia decay as described previously ([27]).

[5] = system: Plasmodium berghei; parameters: method as in PMID 25114127, PMID 25487807; conditions: human PK data with preclinical PK/PD analysis; cited from earlier work

C[C@H]1Cc2c([nH]c3cc(Cl)c(F)cc23)[C@@]2(N1)C(=O)Nc1ccc(Cl)cc12 [cipargamin]
drug exposure (AUC0–∞) in IBSM subjects, fold lower than in patients with naturally acquired malaria [1]: around 3 fold
AUC(0-inf) ([1]; po): 1950 ± 753 ng·h/mL
CL/F, mean ± SD (% CV) ([1]; po): 5.72 ± 1.93 (33.7) liters/h
Cmax ([1]; po): 101 ± 18.3 ng/mL
Tmax ([1]; po): 2 h
Vd/F ([1]; po): 209 ± 54.5 L
AUC(0-t) ([1]; po, AUC0–24 h, mean ± SD (% CV)): 1010 ± 242 ng·h/mL
AUC(0-t) ([1]; po, AUC0–last, mean ± SD (% CV)): 1850 ± 690 ng·h/mL
half-life ([1]; po, t1/2 (elimination half-life), mean ± SD (% CV)): ~26 h
in vitro activity against P. falciparum stages [2]: active against both asexual and sexual stages
inhibition of early- and late-stage gametocyte development in vitro [2]: potent inhibitor
inhibition of oocyst development in vitro [2]: potent inhibition
Abdominal discomfort ([3]; 10 mg, N=8): 4 (50.0) n (%)
Alanine aminotransferase increased ([3]; 10 mg, N=8): 2 (25.0) n (%)
Arthralgia ([3]; 10 mg, N=8): 2 (25.0) n (%)
Aspartate aminotransferase increased ([3]; 10 mg, N=8): 1 (12.5) n (%)
Cardiac disorders (system organ class) ([3]; 10 mg, N=8): 1 (12.5) n (%)
Chills ([3]; 10 mg, N=8): 3 (37.5) n (%)
Decreased appetite ([3]; 10 mg, N=8): 3 (37.5) n (%)
Diarrhoea ([3]; 10 mg, N=8): 2 (25.0) n (%)
Drug-induced liver injury ([3]; 10 mg, N=8): 1 (12.5) n (%)
Eye disorders (system organ class) ([3]; 10 mg, N=8): 1 (12.5) n (%)
Gamma-glutamyltransferase increased ([3]; 10 mg, N=8): 2 (25.0) n (%)
Gastrointestinal disorders (system organ class) ([3]; 10 mg, N=8): 5 (62.5) n (%)
General disorders and administration site conditions (system organ class) ([3]; 10 mg, N=8): 6 (75.0) n (%)
Haemoptysis ([3]; 10 mg, N=8): 1 (12.5) n (%)
Head discomfort ([3]; 10 mg, N=8): 1 (12.5) n (%)
Headache ([3]; 10 mg, N=8): 5 (62.5) n (%) and 5 n (%)
Hepatobiliary disorders (system organ class) ([3]; 10 mg, N=8): 1 (12.5) n (%)
Hyperhidrosis ([3]; 10 mg, N=8): 3 (37.5) n (%)
Investigations (system organ class) ([3]; 10 mg, N=8): 3 (37.5) n (%)
Lethargy ([3]; 10 mg, N=8): 4 (50.0) n (%)
Liver function test abnormal ([3]; 10 mg, N=8): 1 (12.5) n (%)
Liver tenderness ([3]; 10 mg, N=8): 1 (12.5) n (%)
Malaise ([3]; 10 mg, N=8): 4 (50.0) n (%)
Metabolism and nutrition disorders (system organ class) ([3]; 10 mg, N=8): 3 (37.5) n (%)
Musculoskeletal and connective tissue disorders (system organ class) ([3]; 10 mg, N=8): 5 (62.5) n (%)
Myalgia ([3]; 10 mg, N=8): 5 (62.5) n (%) and 5 n (%)
Nausea ([3]; 10 mg, N=8): 1 (12.5) n (%)
Neck pain ([3]; 10 mg, N=8): 1 (12.5) n (%)
Nervous system disorders (system organ class) ([3]; 10 mg, N=8): 6 (75.0) n (%)
Non-cardiac chest pain ([3]; 10 mg, N=8): 1 (12.5) n (%)
Photophobia ([3]; 10 mg, N=8): 1 (12.5) n (%)
Pyrexia ([3]; 10 mg, N=8): 6 (75.0) n (%) and 6 n (%)
Rales ([3]; 10 mg, N=8): 1 (12.5) n (%)
Rash ([3]; 10 mg, N=8): 1 (12.5) n (%)
Respiratory, thoracic and mediastinal disorders (system organ class) ([3]; 10 mg, N=8): 3 (37.5) n (%)
Rhinorrhoea ([3]; 10 mg, N=8): 1 (12.5) n (%)
Skin and subcutaneous tissue disorders (system organ class) ([3]; 10 mg, N=8): 4 (50.0) n (%)
Subjects with at least one adverse event ([3]; 10 mg, N=8): 8 (100) n (%)
Tachycardia ([3]; 10 mg, N=8): 1 (12.5) n (%)
Urticaria ([3]; 10 mg, N=8): 1 (12.5) n (%)
AEs leading to discontinuation: No. (%) of subjects ([3]; 10 mg, 8 subjects): 0 (0)
AEs leading to discontinuation: No. of AEs ([3]; 10 mg, 8 subjects): 0
AEs mild in severity, of all AEs ([3]; 10 mg, 8 subjects): 68/89
Any AEs, cipargamin related: No. (%) of subjects ([3]; 10 mg, 8 subjects): 4 (50.0)
Any AEs, cipargamin related: No. of AEs ([3]; 10 mg, 8 subjects): 10
Any AEs: No. (%) of subjects with at least 1 AE ([3]; 10 mg, 8 subjects): 8 (100)
Any AEs: No. of AEs ([3]; 10 mg, 8 subjects): 89
Moderate AEs (grade 2), cipargamin related: No. (%) of subjects ([3]; 10 mg, 8 subjects): 2 (25.0)
Moderate AEs (grade 2), cipargamin related: No. of AEs ([3]; 10 mg, 8 subjects): 2
Moderate AEs (grade 2): No. (%) of subjects ([3]; 10 mg, 8 subjects): 7 (87.5)
Moderate AEs (grade 2): No. of AEs ([3]; 10 mg, 8 subjects): 18
SAEs: No. (%) of subjects ([3]; 10 mg, 8 subjects): 3 (37.5)
SAEs: No. of AEs ([3]; 10 mg, 8 subjects): 3
Severe AEs (grade 3), cipargamin related: No. (%) of subjects ([3]; 10 mg, 8 subjects): 2 (25.0)
Severe AEs (grade 3), cipargamin related: No. of AEs ([3]; 10 mg, 8 subjects): 2
Severe AEs (grade 3): No. (%) of subjects ([3]; 10 mg, 8 subjects): 2 (25.0)
Severe AEs (grade 3): No. of AEs ([3]; 10 mg, 8 subjects): 3
hematology, urinalysis, or electrocardiogram (ECG) parameters ([3]; 10 mg, 8 subjects): no clinically significant abnormalities
maximum ALT, times ULN ([3]; subject 1): 5.2 × ULN
maximum AST ([3]; subject 1): 88 U/liter
maximum AST, times ULN ([3]; subject 1): 2.2 × ULN
maximum ALT ([3]; subject 1, onset 8 days after dosing): 208 U/liter
ALT ([3]; subject 3, 8 days after dosing): 187 U/liter
ALT, times ULN ([3]; subject 3, 8 days after dosing): 4.6 × ULN
AST ([3]; subject 3, 8 days after dosing): 106 U/liter
AST, times ULN ([3]; subject 3, 8 days after dosing): 2.6 × ULN
GGT ([3]; subject 3, 8 days after dosing): 215 U/liter
GGT, times ULN ([3]; subject 3, 8 days after dosing): 4.3 × ULN
bilirubin ([3]; subject 3, 8 days after dosing): 74 µmol/L
bilirubin, times ULN ([3]; subject 3, 8 days after dosing): 3.7 × ULN
conjugated bilirubin ([3]; subject 3, 8 days after dosing): 22 µmol/L
conjugated bilirubin, times ULN ([3]; subject 3, 8 days after dosing): 3.1 × ULN
peak ALT, times ULN ([3]; subject 8): 24.1 × ULN
peak AST ([3]; subject 8): 443 U/liter
peak AST, times ULN ([3]; subject 8): 11 × ULN
peak GGT ([3]; subject 8): 159 U/liter
peak GGT, times ULN ([3]; subject 8): 3.1 × ULN
peak ALT ([3]; subject 8, onset 11 days after dosing): 964 U/liter
gametocyte development after treatment ([4]; 10 mg cipargamin, followed by piperaquine): Low gametocyte densities were detected in all subjects; also recorded: detected in all 8 subjects; also recorded: not sufficient to prevent gametocyte development
gametocytemia at time of DMFA, geometric mean ([4]; 20 days after cipargamin dosing): 439 gametocytes/ml
peak gametocytemia, geometric mean ([4]; after 10 mg cipargamin then 960 mg piperaquine, 8 subjects): 976 female gametocytes/ml
time of peak gametocytemia after cipargamin dosing ([4]; all subjects, 24 days postinoculation): approximately 17 days
daily dose predicted to be sufficient to clear parasitemia in malaria patients [5]: 30 mg
